Measurements from patent US11332716B2, “Methods and compositions for producing pancreatic beta cells” (The Regents of the University of California, priority 2015, dated 2022).

Legend:
[1] = tested on: pancreatic progenitor-like cells (PPLCs); assay: Maturation of PPLCs into pancreatic-like cells (insulin/Pdx1, day 25); conditions: 5 μM SB203580 or 280 μM pVc used individually
[2] = tested on: Dox-inducible secondary mouse embryonic fibroblasts (MEFs); assay: Pdx1+/Nkx6.1+ colony number on day 16 after small molecules in first/second step; conditions: 1 μM Bix-01294 D0 to D6; 280 μM pVc D0 to D12; readout day 16
[3] = tested on: Dox-inducible secondary mouse embryonic fibroblasts (MEFs); assay: Direct reprogramming of fibroblasts into definitive endoderm-like cells (Sox17/Foxa2); assay type: cell-based; conditions: treatment in first two steps
Experimental: To extend and test the iPSC-factor-based lineage-specific reprogramming paradigm to endoderm, a two-step process was first devised to directly reprogram secondary MEF cells into definitive endoderm-like cells (DELCs). The first step (step I) involved culturing secondary MEF cells in media (Med-I) that is supplemented with 4 μg/ml Dox to initiate epigenetic activation. The second step (step II) was culturing the epigenetically activated cells in Med-II supplemented with 50 ng/ml Activin A and 1 mM LiCl (hereafter referred to as Activin/Li). […] Hereafter these Sox17/Foxa2 double-positive cells are referred to as definitive endoderm-like cells (DELCs).
To test this hypothesis, conditions were evaluated in which definitive endoderm induction factors (Activin/Li) were added to fibroblasts either after (Approach-I) or during (Approach II) iPSC factor expression, using Sox17 and Foxa2 expression as a measure of DELC induction (FIG. 1A).

[4] = tested on: definitive endoderm-like cells (DELCs); assay: Induction of pancreatic progenitor-like cells from DELCs (Pdx1/Nkx6.1 staining); assay type: cell-based, mouse; conditions: 400-compound collection; confirmed in larger-well cultures
Experimental: At the end of treatment, lineage specific markers were analyzed by immunostaining and/or real-time.
Primary antibodies used were Sox17 (R&D), Foxa2 (Millipore), Pdx1 (R&D), Hnf6 (Santa Cruz), Pax6 (Covance), Sox9 (Santa Cruz), Nkx6.1 (Developmental Studies Hybridoma Bank), Insulin (Dako), Glucagon (Sigma), Somatostatin (Abeam), Amylase (Abeam), and CK19 (Abcam). Nuclei were visualized by DAPI (Sigma-Aldrich) staining Images were captured using a Nikon Eclipse TE2000-U microscope.
An available drug collection of 400 compounds in the 48well format was screened to identify small molecules that induce high percentages of Pdx 1^+/NKx6.1^+ cells in DELC populations. Med-III medium (DMEM supplemented with 1 kB27, 2 mM GLUTAMAX™) was used as the basal condition and double staining of Pdx1 and Nkx 6.1 at 4 days post-induction was used as the readout.

p38 MAPK = p38 MAPK (Homo sapiens, UniProt Q16539); conditions: read-out: IC50 for p38 MAPK; cited from earlier work
Chain of p38 MAPK (Q16539 whole entry): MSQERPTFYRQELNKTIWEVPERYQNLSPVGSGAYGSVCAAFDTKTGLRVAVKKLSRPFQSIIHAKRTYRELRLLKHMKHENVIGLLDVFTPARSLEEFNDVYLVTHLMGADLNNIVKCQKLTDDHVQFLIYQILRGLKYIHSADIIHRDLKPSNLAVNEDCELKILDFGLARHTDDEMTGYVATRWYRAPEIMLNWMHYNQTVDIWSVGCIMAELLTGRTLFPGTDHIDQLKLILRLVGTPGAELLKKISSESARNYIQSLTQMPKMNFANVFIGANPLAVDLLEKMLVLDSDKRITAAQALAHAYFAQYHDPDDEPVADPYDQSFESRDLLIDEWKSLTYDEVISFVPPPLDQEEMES

Axl = target: T1, Axl (Homo sapiens, UniProt P30530); conditions: 1 μM; cited from earlier work
T1 sequence (P30530 26-894): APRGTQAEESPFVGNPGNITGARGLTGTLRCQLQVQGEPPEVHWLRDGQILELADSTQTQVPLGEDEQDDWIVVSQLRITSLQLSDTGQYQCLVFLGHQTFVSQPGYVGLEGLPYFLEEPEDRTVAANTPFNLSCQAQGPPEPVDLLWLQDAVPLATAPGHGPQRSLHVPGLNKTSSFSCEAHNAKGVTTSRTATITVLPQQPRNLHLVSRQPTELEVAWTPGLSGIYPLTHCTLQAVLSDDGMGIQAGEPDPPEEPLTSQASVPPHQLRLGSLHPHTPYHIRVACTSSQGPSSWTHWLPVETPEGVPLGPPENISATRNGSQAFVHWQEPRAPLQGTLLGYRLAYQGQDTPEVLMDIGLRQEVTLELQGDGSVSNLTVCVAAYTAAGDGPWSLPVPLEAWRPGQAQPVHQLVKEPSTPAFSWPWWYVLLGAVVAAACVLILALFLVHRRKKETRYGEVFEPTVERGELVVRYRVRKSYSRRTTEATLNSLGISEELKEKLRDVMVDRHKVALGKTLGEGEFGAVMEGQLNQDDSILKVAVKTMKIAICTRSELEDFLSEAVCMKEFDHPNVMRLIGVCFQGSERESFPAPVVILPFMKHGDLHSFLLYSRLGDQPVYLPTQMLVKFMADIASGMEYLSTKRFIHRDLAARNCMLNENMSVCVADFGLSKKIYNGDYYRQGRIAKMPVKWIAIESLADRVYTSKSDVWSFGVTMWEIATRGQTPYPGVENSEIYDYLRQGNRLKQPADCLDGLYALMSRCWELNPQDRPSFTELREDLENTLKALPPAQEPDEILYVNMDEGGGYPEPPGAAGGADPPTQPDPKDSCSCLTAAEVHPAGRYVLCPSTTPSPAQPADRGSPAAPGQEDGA

[5] = tested on: HDAC activity in HeLa extracts; conditions: read-out: IC50 for inhibition of HDAC activity; cited from earlier work
[6] = tested on: pancreatic endodermal progenitor (cPE) cells; assay: Protocol 2 maturation of cPE cells into cPB cells (INSULIN mRNA, C-peptide cells)
[7] = tested on: pancreatic endodermal progenitor cells (cPE cells); assay: Maturation of cPE cells into C-peptide positive cells, chemical screen; conditions: added individually to basal pancreatic differentiation media
[8] = tested on: Src-dependent cell proliferation; conditions: cited from earlier work
[9] = tested on: histone deacetylases (HDACs); conditions: isoform not stated; read-out: IC50 (histone deacetylase); cited from earlier work
presenilase = conditions: higher concentrations (20-400 μM); cited from earlier work
γ-secretase = conditions: read-out: IC50 for total β-amyloid; cited from earlier work
[10] = tested on: MEL1 INS GFP/W hESC spheres; assay: hESC suspension differentiation, flow cytometry of PDX1 and NKX6.1; assay type: cell-based, human; conditions: day 9.5
Text: Treatments consisted of combinations of Cyclopamine (C), Noggin (N), and retinoic acid (R) during days 6-8, followed by subdivision of each condition into three treatment groups during day 9-9.5. Group 1) continuation of day 6-8 treatment; Group 2) treatment with EGF and KGF (EK); Group 3) treatment with EGF, KGF, and Noggin (EKN). […] Data shown are representatives of results obtained in two independent experiments. […] FIG. 17B: Quantification of PDX1 (orange gate) and NKX6.1 (blue gate) protein expressing cells in individual conditions after 9.5 days of differentiation.
Suspension-based differentiations were carried out as follows. Briefly, confluent cultures were dissociated into single cell suspension by incubation with TrypLE (Gibco). […] To induce definitive endoderm differentiation, aggregates were collected 24 hours later in a 50 ml falcon tube, allowed to settle by gravity, washed once with PBS and re-suspended in d1 media (RPMI (Gibco) containing 0.2% FBS, 1:5000 ITS (Gibco), 100 ng/ml Activin A, and 50 ng/ml WNT3a (R&D systems)). Clusters from 3 wells were combined into 2 wells at this point and distributed into fresh low-attachment plates in 5.5 ml d1 media. Media thereafter was changed daily, by removing either 4.5 ml media (at the end of d1) or 5.5 ml media the following days and adding back 5.5 ml fresh media until day 9. After day 9, only 5 ml of media was removed and added daily.
Briefly, spheres were collected and allowed to settle by gravity. Clusters were washed once in PBS and dissociated by gentle pipetting after 12-15 minutes incubation in Accumax (Innovative Cell Technologies). For sorting, cell suspensions were filtered and re-suspended in FACS buffer consisting of phosphate-buffered saline (PBS) (UCSF cell culture facility) containing 2 mM EDTA (Ambion) and 1% BSA (Sigma). Dead cells were excluded by DAPI (Sigma) staining Cell sorting was performed on a FACS Aria II (BD Bioscience). […]

SAPK2/p38 = SAPK2/p38 (Homo sapiens, UniProt Q16539); conditions: cited from earlier work
Chain of SAPK2/p38 (Q16539 whole entry): as the sequence (Q16539 whole entry) above

[11] = tested on: MKN45, U87MG, MDA-MB-231, COLO205, and A549 tumor cells; conditions: 20 mg/kg-60 mg/kg; c-Met-driven or non-c-Met-driven xenografts; cited from earlier work
[12] = tested on: Human foreskin fibroblasts (CRL-2097); assay: Conversion of human fibroblasts into definitive endodermal progenitor cells (FOXA2 positive colonies); conditions: Parnate, RG108 condition

2-Phospho-L-ascorbic acid trisodium salt [pVc]
number of insulin+/Pdx1+ double-positive cells [1]: significantly increased | number of Pdx1+/Nkx6.1+ colonies [2]: ~4 fold | numbers of Sox17 and Foxa2 single positive and double positive cells [3]: no significant influence | screen result: increase of Pdx1 and/or Nkx6.1 expression [4]: Confirmed hits

Cc1cccc(-c2nn(C(=S)Nc3ccccc3)cc2-c2ccnc3ccccc23)n1 [A83-01, 3-(6-Methyl-2-pyridinyl)-N-phenyl-4-(4-quinolinyl)-1H-pyrazole-1-carbothioamide]
screen result: increase of Pdx1 and/or Nkx6.1 expression [4]: Confirmed hits

Cc1cccc(-c2n[nH]cc2-c2ccc3ncccc3n2)n1 [ALK5 inhibitor II, 2-(3-(6-methylpyridine-2-yl)-1H-pyrazol-4-yl)-1,5-naphthyridine]
IC50 (p38 MAPK): > 16 µM

S=C(NCc1ccc2c(c1)OCO2)N1CCN(c2ncnc3c2oc2ccccc23)CC1 [Amuvatinib]
tyrosine phosphorylation of AXL (Axl): inhibits tyrosine phosphorylation of AXL

Nc1ccccc1NC(=O)CCCCCCC(=O)Nc1ccccc1 [BML-210, N1-(2-aminophenyl)-N8-phenyl-octanediamide]
IC50 [5]: ~80 µM

COC(=O)C1=C(C)NC(C)=C([N+](=O)[O-])C1c1ccccc1C(F)(F)F (stereo not drawn) [BayK-8644, 3-pyridinecarboxylic acid, 1,4-dihydro-2,6-dimethyl-5-nitro-4-(2-(trifluoromethyl)phenyl), methyl ester]
number of C-peptide positive cells co-expressing PDX1 and NKX6.1 [6]: increased | expression of the INSULIN gene (mRNA) ([6]; day 21, compared to DMSO controls): promoted expression | percentage of C-peptide positive cells, individual supplementation [7]: effective in increasing

COc1cc2nc(N3CCCN(C)CC3)nc(NC3CCN(Cc4ccccc4)CC3)c2cc1OC [Bix-01294]
number of Pdx1+/Nkx6.1+ colonies [2]: about 3 fold | numbers of Sox17 and Foxa2 single positive and double positive cells [3]: no significant influence

COc1cc(Nc2c(C#N)cnc3cc(OCCCN4CCN(C)CC4)c(OC)cc23)c(Cl)cc1Cl [Bosutinib]
IC50 [8]: 0.1 µM

CC1(C)NC(=O)C(CCCCCC(=O)[C@H]2CO2)NC(=O)C2CCCN2C(=O)[C@@H](Cc2ccccc2)NC1=O (stereo partly drawn) [Chlamydocin, (3R)-3-benzyl-6,6-dimethyl-9-[6-[(2R)-oxiran-2-yl]-6-oxohexyl]-1,4,7,10-tetrazabicyclo[10.3.0]pentadecane-2,5,8,11-tetrone]
IC50 [9]: ~0.00015 µM

C[C@H](NC(=O)Cc1cc(F)cc(F)c1)C(=O)N[C@H]1N=C(c2ccccc2)c2ccccc2N(C)C1=O [Compound E]
effect on presenilase activity (presenilase): only weakly affects | IC50 (γ-secretase): 0.0003 µM | percentage of C-peptide positive cells, individual supplementation [7]: effective in increasing

CC1=C2C[C@H]3[C@@H](CC=C4C[C@@H](O)CC[C@@]43C)[C@@H]2CC[C@]12O[C@@H]1C[C@H](C)CN[C@H]1[C@H]2C [Cyclopamine]
generation of PDX1+ cells over base media alone ([10]; alone, conditions 2 and 3): did not result in enhanced generation

NC(=O)c1ccc(-c2nc(-c3ccc4c(c3)OCCO4)c(-c3ccccn3)[nH]2)cc1 [D 4476, 4-[4-(2,3-Dihydro-1,4-benzodioxin-6-yl)-5-(2-pyridinyl)-IH-imidazol-2-yl]benzamide]
selectivity over SAPK2/p38 (SAPK2/p38): greater than 20 fold

CC1NC(=O)C(C)NC(=O)C2CCCN2C(=O)C(CCCCCCC(=O)C2CO2)NC1=O [HC Toxin, (6R,9S,14aR)-3,6R-dimethyl-9S-(7-((S)-oxiran-2-yl)-7-oxoheptyl)decahydropyrrolo[1,2-a][1,4,7,10]tetraazacyclododecine-1,4,7, 10-tetranone]
IC50 [9]: 0.03 µM

Cc1c(C(=O)Nc2ccc(N3C[C@@H](C)O[C@@H](C)C3)nc2)cccc1-c1ccc(OC(F)(F)F)cc1 [LDE225]
screen result: increase of Pdx1 and/or Nkx6.1 expression [4]: Confirmed hits

Nc1ccccc1NC(=O)c1ccc(CNc2nccc(-c3cccnc3)n2)cc1 [MGCD0103, N-(2-aminophenyl)-4-[[(4-pyridin-3-ylpyrimidin-2-yl)amino]methyl]benzamide]
IC50 [9]: ~0.1 µM

Cn1cnc(-c2cc3nccc(Oc4ccc(NC(=S)NC(=O)Cc5ccccc5)cc4F)c3s2)c1 [MGCD-265]
tumor growth and c-Met signaling [11]: inhibits tumor growth and c-Met signaling

Nc1ccccc1NC(=O)c1ccc(CNC(=O)OCc2cccnc2)cc1 [MS-27-275]
IC50 [9]: 0.1 to 1 µM

CCNC(=O)[C@H]1O[C@@H](n2cnc3c(N)ncnc32)C(O)C1O (stereo partly drawn) [NECA, 5′-N-ethylcarboxamidoadenosine]
increase of conversion rate over the basal protocol ([12]; NECA added to NaB): 5 fold | further increase of conversion rate over the improved condition ([12]; added to NaB): 2 fold

C[S+]([O-])c1ccc(-c2nc(-c3ccc(F)cc3)c(-c3ccncc3)[nH]2)cc1 (stereo not drawn) [SB203580, 4-(4-fluorophenyl)-2-(4-methylsulfinylphenyl)-5-(4-pyridyl)-1H-imidazole]
number of insulin+/Pdx1+ double-positive cells [1]: significantly increased

CC(/C=C/C(=O)NO)=C\[C@@H](C)C(=O)c1ccc(N(C)C)cc1 [Trichostatin A, (R,2E,4E)-6-(4-(dimethylamino)benzoyl)-N-hydroxy-4-methylhepta-2,4-dienamide]
IC50 [9]: ~0.0018 µM

CC1=C(/C=C/C(C)=C/C=C/C(C)=C/C(=O)O)C(C)(C)CCC1 [retinoic acid]
PDX1 positive progenitors ([10]; days 6-8, alone or in combination (conditions 4, 5, 6), group 1): > 88%
